≈ marks a conversion by molar mass, not a printed value. Where two headings read alike, the source gives them in different places.
What was measured:
[1] = test system: E. coli ATCC25922 strain; test: MIC 50, broth micro-dilution, wild-type Escherichia coli; format: cell-based; conditions: MH2, 18 h
Text: 3.1 Against E. coli Strains
(§1) Tested reference compounds. Amikacin sulfate (Cat. No. 01693, Chem-Impex), Gentamicin sulfate (Cat. No. G4918, Sigma Aldrich).
Microbial strains. E. coli ATCC 25922, E. coli ATCC 25922/pET-9b(+), E. coli ATCC 25922/pAT21-1, E. coli ATCC 25922/pBluescript::AAC(6′)-Ie/APH(2″)-Ia, E. coli ATCC 25922/pBlue_lpp_aacC3_rrnC, E. coli ATCC 25922/pSET152.
Culture media and equipment. BBL™ Mueller Hinton Broth 2 (Lot. BCBW1143, Cat. No. 70192, Sigma); Kanamycin A (Cat. No. A1493, AppliChem); 96-well deep well plate, 1 mL (Cat. No. 0030506.200, Eppendorf); Plate lids (Cat. No. 0030131.525, Eppendorf); 96-well plate, F-bottom (Cat. No. 781602, Brand; Incubator, Infors Multitron Pro); Laminar flow (Heraeus KS12); UV/VIS meter (Eppendorf BioPhotometer Plus); Platereader (Tecan Sunrise).
(§2) Compound preparation. Compounds were prepared in MH2 media at a concentration of 5 mM and stored at 4° C. For testing, solutions of 128 μM were prepared in MH2. Out of these working solutions, 400 μL was transferred to wells in the first column of 96-well deep well plates. Each compound was transferred in triplicate. Plates were previously filled with 200 μL of MH2 media in all wells except for the wells in the first column. After compound and antibiotic addition, the compounds were serial two-fold diluted by transferring 200 μL from the first to the second column, then from the second to the third column and so on. Finally, 200 μL was removed from the last column.
Inoculum preparation. Microorganisms used were all revived from 20% glycerol (40% v/v glycerol in water was diluted with MH2) storage at −80° C. by inoculating them in 5 mL MH2. inoculums of E. coli containing a plasmid were selected for by adding 50 μg/mL KanaA. The Inoculums were grown to an optical density (measured by UV/Vis spectroscopy) of 0.6-0.8 at 600 nm. Out of these suspensions, actual inoculums were prepared by diluting them to an optical density (OD) of 0.1 in MH2 media. From these inoculums, 200 μL was transferred to each well, resulting in a final compound concentration range of 64 μM-31.3 nM. All plates were incubated at 900 rpm and 70% rH for 18 h at 37° C.
MIC determination. After 18 h of growth, 200 μL was transferred to a 96-well F-bottom plate. The optical density was determined by a plate reader at 600 nm, with 10 s shaking before reading. Triplicate measurements were averaged, and a growth curve was plotted in Microsoft Excel. The first column in which the growth reached half the value of maximum growth was determined as the MIC50 value for that particular compound.
(§3) MIC50. The MIC50 of a compound was assigned at which the bacterial growth reached half the value of maximum growth.

[2] = test system: A. baumannii DSM 105126; test: MIC 50, broth micro-dilution, DSM strains; format: cell-based, Acinetobacter baumannii
Text: 3.2 Against Selected Bacteria of the ESKAPE Panel and Enterococcus faecalis (DSM Strains)
as §1
Microbial strains. Enterococcus faecalis DSM 2570, Klebsiella pneumoniae DSM 26371, Acinetobacter baumannii DSM 105126, Enterobacter cloacae 3MRGN (clinical bronchial aspirate isolate).
Culture media and equipment. BBL™ Mueller Hinton Broth 2 (Lot. BCBW1143, Cat. No. 70192, Sigma); Trypcase Soy Blood-agar plates (Cat. No. 43001, Biomérieux); Cryoinstant (contains 15% glycerol; Cat. No. 822070ZA, VWR International); GasPak™ EZ Standard Incubation Container (Cat. No. 260671, Becton Dickinson); GasPak™ EZ Campy Container System Sachets (Cat. No. 260680, Becton Dickinson); 96-well deep well plate, 1 mL (Cat. No. 0030506.200, Eppendorf); Plate lid (Cat. No. 0030131.525, Eppendorf); 96-well plate, F-bottom (Cat. No. 260860, Nunc); Incubator (Sartorius Certomat BS-1); Laminar flow (Heraeus HS12); UV/VIS meter (Perkin Elmer Lambda Bio+); Platereader (Tecan Infinite M200 Pro).
as §2, with “MH2, for tests against E. faecalis a solution of 512 μM was prepared.” for “MH2.”
Inoculum preparation. Microorganisms used were all revived from 15% glycerol storage in Croinstant tubes at −28° C. by plating them on blood agar plates. A. baumanni, and E. cloacae were grown aerobically at 37° C., E. faecalis was grown microaerophilically at 37° C., and K. pneumoniae was grown aerobically at 37° C. Plates were stored at 4° C. for up to two weeks, after which new plates were prepared from −28° C. A single colony was inoculated in MH2 media and grown at 37° C. and 200 rpm to an optical density (measured by UV/Vis spectroscopy) of 0.6-0.8 at 600 nm. Out of these suspensions, actual inoculums were prepared by diluting them to an optical density of 0.1 in MH2 media. From these inoculums, 200 μL was transferred to each well, resulting in a final compound concentration range of 64 μM-31.3 nM for, K. pneumoniae, A. baumanni, and E. cloacae, and 256 μM-125 nM for E. faecalis. Plates inoculated with E. faecalis were placed inside a GasPak™ Container System with GasPak™ Campy Container System sachets. All plates were incubated at 200 rpm for 18 h under the microorganism culturing conditions mentioned above.
MIC determination. After 18 h of growth, 200 μL was transferred to a 96-well F-bottom plate. The optical density was determined by a plate reader at 600 nm, with 10 s shaking before reading. Triplicate measurements were averaged, and a growth curve was plotted in Excel. The first column in which the growth reached half the value of maximum growth was determined as the MIC50 value for that particular compound.
as §3

[3] = Escherichia coli, ATCC25922, 18 h
[4] = Acinetobacter baumannii, DSM105126, read-out: MIC 50

Row | Compound | MIC50 [1, 3] | MIC50 [2, 4] | MIC50 [1] | MIC50 [2]
1 | N=C(NCCO)NC1[C@@H](O)C(OC2[C@@H](F)[C@H](O[C@H]3OC(CN)[C@@H](O)CC3N)C(N)C[C@H]2NC(=O)[C@@H](O)CCN)O[C@H](CO)[C@H]1O (stereo partly shown) [ABX5029, Tobra-AHB-F-Gua 2-hydroxy-ethyl] | 0.5 µM (≈ 0.328 µg/mL) | 0.0625 µM (≈ 0.041 µg/mL) |  | 
2 | N=C(NCC1CCCO1)NC1[C@@H](O)C(OC2[C@@H](F)[C@H](O[C@H]3OC(CN)[C@@H](O)CC3N)C(N)C[C@H]2NC(=O)[C@@H](O)CCN)O[C@H](CO)[C@H]1O (stereo partly shown) [ABX5046, Tobra-AHB-F-Gua tetrahydrofuran-2-yl methyl] | 0.5 µM (≈ 0.348 µg/mL) | 0.25 µM (≈ 0.174 µg/mL) |  | 
3 | N=C(N)NC1[C@@H](O)C(OC2[C@@H](F)[C@H](O[C@H]3OC(CN)[C@@H](O)[C@H](O)C3N)C(N)C[C@H]2NC(=O)[C@@H](O)CCN)O[C@H](CO)[C@H]1O (stereo partly drawn) [ABX4004, 3′epi-KanaB-AHB-F-Gua] |  |  | 1 to 2 µM | 0.125 µM (≈ 0.0786 µg/mL)
4 | N=C(NCc1ccncc1)NC1[C@@H](O)C(OC2[C@@H](F)[C@H](O[C@H]3OC(CN)[C@@H](O)CC3N)C(N)C[C@H]2NC(=O)[C@@H](O)CCN)O[C@H](CO)[C@H]1O (stereo partly shown) [ABX5048, Tobra-AHB-F-Gua pyridin-4-yl methyl] | 1 µM (≈ 0.704 µg/mL) | 0.5 µM (≈ 0.352 µg/mL) |  | 
5 | NCC[C@H](O)C(=O)N[C@@H]1CC(N)[C@@H](O[C@H]2OC(CN)[C@@H](O)[C@@H](O)C2N)[C@H](O)C1OC1O[C@H](CO)[C@@H](O)C(N)[C@H]1O (stereo partly drawn) [ABX4002, 3′Epi-KanaB-AHB] |  |  | 8 µM (≈ 4.68 µg/mL) | 0.5 µM (≈ 0.292 µg/mL)
6 | N=C(NCC1CC1)NC1[C@@H](O)C(OC2[C@@H](F)[C@H](O[C@H]3OC(CN)[C@@H](O)CC3N)C(N)C[C@H]2NC(=O)[C@@H](O)CCN)O[C@H](CO)[C@H]1O (stereo partly shown) [ABX5027, Tobra-AHB-F-Gua cyclopropylmethyl] | 0.5 µM (≈ 0.333 µg/mL) | 0.125 µM (≈ 0.0833 µg/mL) |  | 
7 | N=C(N)NC1C(O)[C@@H](CO)OC(OC2C(F)[C@H](O[C@H]3OC(CN)[C@@H](O)CC3N)C(N)C[C@H]2NC(=O)[C@@H](O)CCN)[C@@H]1O (stereo partly shown) [ABX5006, Tobra-AHB-F-Gua] | < 0.25 µM | 0.0625 µM (≈ 0.0383 µg/mL) |  | 
8 | N=C(N)NC1[C@@H](O)C(OC2[C@@H](O)[C@H](O[C@H]3OC(CN)[C@@H](O)CC3N)C(N)C[C@H]2NC(=O)[C@@H](O)CCN)O[C@H](CO)[C@H]1O (stereo partly shown) [ABX5005, Tobra-AHB-Gua] |  |  | 1 to 2 µM | 0.25 µM (≈ 0.153 µg/mL)
9 | N=C(NC[C@@H]1CCCN1)NC1[C@@H](O)C(OC2[C@@H](F)[C@H](O[C@H]3OC(CN)[C@@H](O)CC3N)C(N)C[C@H]2NC(=O)[C@@H](O)CCN)O[C@H](CO)[C@H]1O (stereo partly drawn) [ABX5026, Tobra-AHB-F-Gua (S) pyrrolidine-2-yl-methyl] | 0.25 µM (≈ 0.174 µg/mL) | 0.0312 to 0.0625 µM (≈ 0.0217 to 0.0435 µg/mL) |  | 
10 | N=C(NCc1cnc[nH]1)NC1[C@@H](O)C(OC2[C@@H](F)[C@H](O[C@H]3OC(CN)[C@@H](O)CC3N)C(N)C[C@H]2NC(=O)[C@@H](O)CCN)O[C@H](CO)[C@H]1O (stereo partly shown) [ABX5050, Tobra-AHB-F-Gua imidazol-5-yl methyl] | 1 µM (≈ 0.693 µg/mL) | 0.5 µM (≈ 0.346 µg/mL) |  | 
11 | N=C(NC[C@@H]1CCNC1)NC1[C@@H](O)C(OC2[C@@H](F)[C@H](O[C@H]3OC(CN)[C@@H](O)CC3N)C(N)C[C@H]2NC(=O)[C@@H](O)CCN)O[C@H](CO)[C@H]1O (stereo partly drawn) [ABX5039, Tobra-AHB-F-Gua (R) pyrrolidine-3-ylmethyl] | 0.25 µM (≈ 0.174 µg/mL) | 0.0625 µM (≈ 0.0435 µg/mL) |  | 
12 | NCCC(O)C(=O)NC1CC(N)C(OC2OC(CN)C(O)C(O)C2N)C(O)C1OC1OC(CO)C(O)C(N)C1O (stereo not shown) [ABX4001, KanaB-AHB] |  |  | 2 µM (≈ 1.17 µg/mL) | 0.5 µM (≈ 0.292 µg/mL)
13 | N=C(N)NC1[C@@H](O)C(OC2[C@@H](O)[C@H](O[C@H]3OC(CN)[C@@H](O)[C@H](O)C3N)C(N)C[C@H]2NC(=O)[C@@H](O)CCN)O[C@H](CO)[C@H]1O (stereo partly shown) [ABX4009, KanaB-AHB-Gua] |  |  | 2 µM (≈ 1.25 µg/mL) | 0.5 µM (≈ 0.313 µg/mL)
14 | NCC[C@H](O)C(=O)N[C@@H]1C[C@H](N)[C@@H](O[C@H]2O[C@H](CN)[C@@H](O)[C@@H](O)[C@H]2O)[C@H](O)[C@H]1O[C@H]1O[C@H](CO)[C@@H](O)[C@H](N)[C@H]1O [ABX3002, 3′Epi-KanaA-AHB] |  |  | 16 to 32 µM | 2 µM (≈ 1.17 µg/mL)
15 | N=C(N)NC1[C@@H](O)C(OC2[C@@H](F)[C@H](O[C@H]3OC(CN)[C@@H](O)[C@H](O)C3N)C(N)C[C@H]2NC(=O)[C@@H](O)CCN)O[C@H](CO)[C@H]1O (stereo partly shown) [ABX4006, KanaB-AHB-F-Gua] |  | 0.125 µM (≈ 0.0786 µg/mL) |  | 
16 | N=C(NC[C@H]1CNCCO1)NC1[C@@H](O)C(OC2[C@@H](F)[C@H](O[C@H]3OC(CN)[C@@H](O)CC3N)C(N)C[C@H]2NC(=O)[C@@H](O)CCN)O[C@H](CO)[C@H]1O (stereo partly drawn) [ABX5043, Tobra-AHB-F-Gua (R) morpholin-2-yl methyl] | 0.25 µM (≈ 0.178 µg/mL) | 0.0625 to 0.125 µM (≈ 0.0445 to 0.089 µg/mL) |  | 
17 | NCCC(O)C(=O)NC1CC(N)C(OC2OC(CN)C(O)C(O)C2O)C(F)C1OC1OC(CO)C(O)C(N)C1O (stereo not drawn) [ABX3005, 3′Epi-KanaA-AHB-F] |  |  | 4 µM (≈ 2.35 µg/mL) | 1 µM (≈ 0.588 µg/mL)
18 | NCC[C@H](O)C(=O)N[C@@H]1CC(N)[C@@H](O[C@H]2OC(CN)[C@@H](O)CC2N)[C@H](F)C1OC1O[C@H](CO)[C@@H](O)C(N)[C@H]1O (stereo partly shown) [ABX5024, Tobra-AHB-F] |  |  | 1 µM (≈ 0.571 µg/mL) | 0.125 µM (≈ 0.0713 µg/mL)
19 | NCCC(O)C(=O)NC1CC(N)C(OC2OC(CN)C(O)C(O)C2N)C(F)C1OC1OC(CO)C(O)C(N)C1O (stereo not shown) [ABX4007, KanaB-AHB-F] |  |  | 1 µM (≈ 0.587 µg/mL) | 0.5 µM (≈ 0.293 µg/mL)
